# From the supplement of paper PMC10307832
# Compound: Cc1ccc(C(=O)Nc2ccc(CN3CCN(C)CC3)c(C(F)(F)F)c2)cc1C#Cc1cnc2cccnn12 [Ponatinib] + Nc1ncn([C@H]2C[C@H](O)[C@@H](CO)O2)c(=O)n1 [Decitabine] (partner 2 µM)
# Experiment: relative viability (nuclei count vs DMSO), 5 days (fraction); higher = more cells survive
# Details: first compound 0.002 µM
# Summary of the method: (§1)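 Lung cancer cell lines, seeded in 1536-well plates, were treated the following day by pin tool with a single drug or with five library-drug doses (not always all listed) in √10 steps on top of a fixed anchor-drug dose. Cells were fixed and nuclei stained in one step after 5 days, and nuclei were counted. Relative viability is the nuclei count for treated wells divided by that for vehicle wells, reported as medians of duplicate plates.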
row,Cell Line,relative viability
1,NCI-H727,0.909
2,NCI-H1734,0.477
3,NCI-H520,0.426
4,NCI-H2405,0.762
5,SW 1573,0.463
6,201T,0.849
7,NCI-H1915,0.244
8,HCC-827,0.327
9,LXF-289,0.388
10,NCI-H23,0.286

# Same assay, conditions: first compound 0.006325 µM
row,Cell Line,relative viability
1,HARA,0.632
2,HCC-78,0.757
3,NCI-H441,0.246
4,LCLC-97TM1,0.242
5,NCI-H2009,0.343
6,A-427,0.507
7,NCI-H460,0.471
8,NCI-H727,1.01
9,NCI-H1734,0.459
10,NCI-H520,0.483
11,NCI-H2405,0.754
12,SW 1573,0.458
13,201T,0.862
14,NCI-H1915,0.274
15,HCC-827,0.385
16,LXF-289,0.359
17,NCI-H23,0.313

# Same assay, conditions: first compound 0.06325 µM
row,Cell Line,relative viability
1,HARA,0.568
2,HCC-78,0.668
3,NCI-H441,0.271
4,LCLC-97TM1,0.214
5,NCI-H2009,0.354
6,A-427,0.592
7,NCI-H460,0.559
8,NCI-H727,0.838
9,NCI-H1734,0.524
10,NCI-H520,0.45
11,NCI-H2405,0.821
12,SW 1573,0.695
13,201T,0.914
14,NCI-H1915,0.246
15,HCC-827,0.338
16,LXF-289,0.36
17,NCI-H23,0.332

# Same assay, conditions: first compound 0.2 µM
row,Cell Line,relative viability
1,HARA,0.665
2,HCC-78,0.577
3,NCI-H441,0.267
4,LCLC-97TM1,0.248
5,NCI-H2009,0.372
6,A-427,0.49
7,NCI-H460,0.454
8,NCI-H727,0.933
9,NCI-H1734,0.429
10,NCI-H520,0.411
11,NCI-H2405,0.685
12,SW 1573,0.46
13,201T,0.811
14,NCI-H1915,0.257
15,HCC-827,0.326
16,LXF-289,0.379
17,NCI-H23,0.297

# Compound: Cc1ccc(Nc2nccc(N(C)c3ccc4c(C)n(C)nc4c3)n2)cc1S(N)(=O)=O [Pazopanib] + C[C@@H](Oc1cc(-c2cnn(C3CCNCC3)c2)cnc1N)c1c(Cl)ccc(F)c1Cl [Crizotinib] (partner 1 µM)
# Experiment: as above
# Details: first compound 0.01 µM
# Summary of the method: as §1
row,Cell Line,relative viability
1,HARA,1.1
2,HCC-78,0.366
3,NCI-H441,0.686
4,NCI-H2009,1.05
5,A-427,1.01
6,NCI-H460,0.931
7,NCI-H727,0.98
8,NCI-H1734,0.689
9,NCI-H2405,0.825
10,SW 1573,0.813
11,201T,1.05
12,NCI-H1915,0.875
13,HCC-827,0.999
14,LXF-289,0.851
15,NCI-H23,0.594

# Same assay, conditions: first compound 0.03162 µM
row,Cell Line,relative viability
1,HARA,1.04
2,HCC-78,0.354
3,NCI-H441,0.704
4,LCLC-97TM1,0.309
5,NCI-H2009,1.06
6,A-427,0.934
7,NCI-H460,1.15
8,NCI-H727,0.787
9,NCI-H1734,0.727
10,NCI-H520,0.894
11,NCI-H2405,0.863
12,SW 1573,0.878
13,201T,1.07
14,NCI-H1915,0.974
15,HCC-827,0.976
16,LXF-289,0.829
17,NCI-H23,0.474

# Same assay, conditions: first compound 0.1 µM
row,Cell Line,relative viability
1,HARA,1.22
2,HCC-78,0.349
3,NCI-H441,0.639
4,LCLC-97TM1,0.277
5,NCI-H2009,1.01
6,A-427,0.967
7,NCI-H460,0.849
8,NCI-H727,1.15
9,NCI-H1734,0.614
10,NCI-H520,0.991
11,NCI-H2405,0.842
12,SW 1573,0.974
13,201T,1.03
14,NCI-H1915,0.911
15,HCC-827,0.906
16,LXF-289,0.801
17,NCI-H23,0.577

# Same assay, conditions: first compound 0.3162 µM
row,Cell Line,relative viability
1,HARA,1.05
2,HCC-78,0.358
3,NCI-H441,0.625
4,LCLC-97TM1,0.297
5,NCI-H2009,1.05
6,A-427,0.788
7,NCI-H460,1
8,NCI-H727,0.831
9,NCI-H1734,0.658
10,NCI-H520,0.672
11,NCI-H2405,0.915
12,SW 1573,0.836
13,201T,1.06
14,NCI-H1915,0.847
15,HCC-827,0.902
16,LXF-289,0.782
17,NCI-H23,0.735

# Same assay, conditions: first compound 1 µM
row,Cell Line,relative viability
1,HARA,1.1
2,HCC-78,0.383
3,NCI-H441,0.596
4,LCLC-97TM1,0.427
5,NCI-H2009,0.964
6,A-427,0.818
7,NCI-H460,0.963
8,NCI-H727,1.08
9,NCI-H1734,0.622
10,NCI-H520,0.747
11,NCI-H2405,0.713
12,SW 1573,0.757
13,201T,1.06
14,NCI-H1915,0.79
15,HCC-827,0.922
16,LXF-289,0.824
17,NCI-H23,0.591
